These results are taken from US8071367B2, “Selecting, culturing and creating lineage committed hematopoietic stem cells” (Commonwealth Scientific and Industrial Research Organisation, priority 2005, dated 2011).

Where no end group is shown, it is not given here.

The assay relates to CB CD34+CD38− HSC. As to the kind of experiment: In vitro proliferation of sorted cord blood CD34+CD38− HSC with 6 growth factor stimulation, cells counted after 6 days. Format: cell-based, human. The settings on record: 300 per well, Cellgro supplemented with 6 factors, after 6 d, versus 6 factors alone. On the procedure: Human cord blood cells were sorted by FACS and plated into cell culture wells (300 cells/well) in the presence of Cellgro supplemented with 6 growth factors G-CSF, […], FL-T3 ligand, (FLT3-L), MGDF (all 100 ng/ml), IL-6 and IL-3 (both 10 ng/ml). In addition, α9β1 antibody (Chemicon), thrombin-cleaved bovine Opn (R & D Systems, Minneapolis, Minn., USA), or Opn inhibiting peptide [SVVYGLR-NH2] (Auspep) (SEQ ID NO:1) were added. All cells were cultured at 37° C. in 5% O2, 10% CO2 and 85% N2. Cells were grown for 6 days prior to counting.
Thrombin-cleaved Opn was prepared by incubating 24 μg bovine Opn in 20 mM Tris-HCl (pH 7.6), 80 mM NaCl, 2 mM CaCl2 and 0.1 units of thrombin (CSL, Parkville, Australia), for 10 min at 37° C.

On to SVVYGLR-NH2 [osteopontin peptide], for which the cell proliferation entry is on record as “significant inhibition of cell proliferation”.
